The values that follow come from US7989438B2, “Therapeutic compounds” (Istituto di Ricerche di Biologia Molecolare P. Angeletti SpA, priority 2007, dated 2011).

Where two headings read alike, the source gives them in different places.

This assay deals with HCV subgenomic replication. The assay is described as follows: Cell based HCV replication assay (subgenomic replicon in Huh-7 cells, NS3 Cell-ELISA). The note with it: activity ranges. An outline of the steps:
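Huh-7 cells stably carrying the I377neo/NS3-3′/wt subgenomic replicon, seeded at 10^4 cells/well in DMEM/10% FCS and exposed to inhibitor for 96 h. NS3 expression was measured by Cell-ELISA (mAb 10E5/24, alkaline phosphatase, absorbance 405/620 nm), in duplicate. IC50 was fitted to the Hill equation, with background from parental Huh-7 cells.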

[1] abbreviates: Table 5, various macrocycles, read-out: IC50* (nM), Inhibition of HCV subgenomic replication.

What is called IC50 is the midpoint of a concentration-inhibition curve. For `Cc1cccc2c1OCC1Cn3c-2c(C2CCCCC2)c2ccc(cc23)C(=O)NS(=O)(=O)N(C)CCNCCN1C` [Example 515, (7R)-14-cyclohexyl-4,18,24-trimethyl-7,8-dihydro-6H-7,11-(epiminoethanoiminoethanoiminothioiminomethano)-indolo[1,2-e][1,5]benzoxazocin-15-one 17,17-dioxide], under setting [1], the IC50 was less than 25 nM.

Take `Cc1cccc2c1OCC1Cn3c-2c(C2CCCCC2)c2ccc(cc23)C(=O)NS(=O)(=O)N(C)CCN(C)CCN1C` [Example 516, (7R)-14-cyclohexyl-4,18,21,24-tetramethyl-7,8-dihydro-6H-7,11-(epiminoethanoiminoethanoiminothioiminomethano)-indolo[1,2-e][1,5]benzoxazocin-15-one 17,17-dioxide]: the half-maximal inhibitory concentration (IC50) under setting [1] was less than 25 nM. For `Cc1cccc2c1OCC1Cn3c-2c(C2CCCCC2)c2ccc(cc23)C(=O)NS(=O)(=O)N(C)CCN(Cc2cnn(C)c2)CCN1C` [Example 517, (7R)-14-cyclohexyl-4,18,24-trimethyl-21-[(1-methyl-1H-pyrazol-4-yl)methyl]-7,8-dihydro-6H-7,11-(epiminoethanoiminoethanoiminothioiminomethano)-indolo[1,2-e][1,5]benzoxazocin-15-one 17,17-dioxide], under setting [1], the IC50 was less than 25 nM. Same read-out and setting: as for `CN1CCN(C)[C@H]2COc3ccccc3-c3c(C4CCCC4)c4ccc(cc4n3C2)C(=O)NS(=O)(=O)N(C)CC1` [Example 518, (7R)-14-cyclopentyl-18,21,24-trimethyl-7,8-dihydro-6H-7,11-(epiminoethanoiminoethanoiminothioiminomethano)-indolo[1,2-e][1,5]benzoxazocin-15-one 17,17-dioxide], the figure is less than 25 nM. On the same count and under the same terms, the same measure for `COc1cccc2c1OCC1Cn3c-2c(C2CCCCC2)c2ccc(cc23)C(=O)NS(=O)(=O)N(C)CCOCCN1C` [Example 519, (7R)-14-cyclohexyl-4-methoxy-18,24-dimethyl-7,8-dihydro-6H-7,11-(epiminoethanooxyethanoiminothioiminomethano)indolo[1,2-e][1,5]benzoxazocin-15-one 17,17-dioxide]: 25 to 150 nM; for `Cc1cccc2c1OCC1CCCN(C)CCN(C)S(=O)(=O)NC(=O)c3ccc4c(C5CCCCC5)c-2n(c4c3)C1` [Example 520, (7R)-14-cyclohexyl-4,18,21-trimethyl-7,8-dihydro-6H-7,11-(propanoiminoethanoiminothioiminomethano)indolo[1,2-e][1,5]benzoxazocin-15-one 17,17-dioxide]: less than 25 nM. `Cc1cccc2c1OCC1CCN(C)CCCN(C)S(=O)(=O)NC(=O)c3ccc4c(C5CCCCC5)c-2n(c4c3)C1` [Example 521, (7R)-14-cyclohexyl-4,18,22-trimethyl-7,8-dihydro-6H-7,11-(ethanoiminopropanoiminothioiminomethano)indolo[1,2-e][1,5]benzoxazocin-15-one 17,17-dioxide]: the IC50 under setting [1] was less than 25 nM. The same measure, in the same setting: as for `Cc1cccc2c1OCC1CCN(CCN(C)C)CCCN(C)S(=O)(=O)NC(=O)c3ccc4c(C5CCCCC5)c-2n(c4c3)C1` [Example 522, (7R)-14-cyclohexyl-22-[2-(dimethylamino)ethyl]-4,18-dimethyl-7,8-dihydro-6H-7,11-(ethanoiminopropanoiminothioiminomethano)indolo[1,2-e][1,5]benzoxazocin-15-one 17,17-dioxide], the figure is less than 25 nM.

Consider `COc1ccc2c(c1)OC[C@@H]1CCN(C)C3CCN(CC3)S(=O)(=O)NC(=O)c3ccc4c(C5CCCCC5)c-2n(c4c3)C1` [Example 523, (20R)-30-cyclohexyl-15-methoxy-23-methyl-18-oxa-2-thia-1,3,10,23-tetraazahexacyclo[22.2.2.1^5,9.1^8,11.1^10,20.0^12,17]hentriaconta-5(31),6,8,11(30),12,14,16-heptaen-4-one 2,2-dioxide], for which the IC50 (Hepatitis C virus, Huh-7, Table 5, various macrocycles, read-out: IC50* (nM), Inhibition of HCV subgenomic replication) is less than 25 nM. In the case of `COc1ccc2c(c1)OCC1CCN(C)CC(F)(F)CN(C)S(=O)(=O)NC(=O)c3ccc4c(C5CCCCC5)c-2n(c4c3)C1` [Example 524, (7R)-14-cyclohexyl-20,20-difluoro-3-methoxy-18,22-dimethyl-7,8-dihydro-6H-7,11-(ethanoiminopropanoiminothioiminomethano)indolo[1,2-e][1,5]benzoxazocin-15-one 17,17-dioxide], under setting [1], the IC50 lay in the range of 150 to 500 nM. Take `COc1ccc2c(c1)OCC1CCN(C)CC(F)CN(C)S(=O)(=O)NC(=O)c3ccc4c(C5CCCCC5)c-2n(c4c3)C1` [Example 525, (7R)-14-cyclohexyl-20-fluoro-3-methoxy-18,22-dimethyl-7,8-dihydro-6H-7,11-(ethanoiminopropanoiminothioiminomethano)indolo[1,2-e][1,5]benzoxazocin-15-one 17,17-dioxide]: the IC50 under setting [1] was less than 25 nM. Take “(5R)-31-cyclohexyl-4,24-dimethyl-7-oxa-23-thia-1,4,15,22,24-pentaazahexacyclo[23.2.2.1^5,15.1^14,17.1^16,20.0^8,13]dotriaconta-8,10,12,14(31),16(30),17,19-heptaen-21-one 23,23-dioxide [Example 305]”: the IC50 (Table 3, various macrocycles, read-out: IC50* (nM), Inhibition of HCV subgenomic replication) was less than 25 nM. As for “(7R)-14-cyclohexyl-4-methoxy-18,22-dimethyl-7,8-dihydro-6H-7,11-(ethanoiminopropanoiminothioiminomethano)indolo[1,2-e][1,5]benzoxazocin-15-one 17,17-dioxide [Compound A33]”, the IC50 (Table A, Huh-7 replicon cells, 96 hours, read-out: IC50 (nM), Inhibition of HCV subgenomic replication) was less than 25 nM.
